We go through 3 compounds from paper PMC5500509, “The prognostic biomarker L-homoarginine is a substrate of the cationic amino acid transporters CAT1, CAT2A and CAT2B” (Scientific Reports, 2017).

The IC50 is the midpoint of a concentration-inhibition curve. As a reminder, the Km is the substrate concentration at which the rate is half of its maximum.

Like-named read-outs stand apart in the source and are kept apart here.

Series [1] has as its target T1, human CAT2A (SLC7A2A) (Homo sapiens, UniProt P52569).
T1 construct: expressed in transfected cells
Nature of the series: Inhibition of CAT2A-mediated substrate uptake in HEK CAT2A cells. In kind it is cell-based. As to conditions: for inhibition of CAT2A-mediated transport of L-homoarginine: substrate L-homoarginine 100 µmol/l, inhibitor 1-10000 µmol/l, IC50 not calculable. Here is the method:
Cell lines and basic cell culture conditions have previously been described, [24]. The original choice of human embryonic kidney cells (HEK293) cells for transfection with CAT1-, CAT2A- or CAT2B- was based on their reliable growth and well established propensity for transfection and cellular uptake experiments. In brief, uptake assays were performed using [^3H]-labeled substrate and human embryonic kidney (HEK293) cells stably overexpressing the empty vector only (HEK VCG418 and HEK VChygro, depending on selection conditions) or human CAT1 (HEK CAT1, gene: SLC7A1, NM_003045.4), CAT2A (HEK CAT2A, gene: SLC7A2A, NM_003046.5) or CAT2B (HEK CAT2B, SLC7A2B, NM_001008539.3). The cells were cultured in minimal essential medium containing 10% heat-inactivated fetal bovine serum, 100 U/l penicillin, 100 μg/ml streptomycin, and either G418 (800 µg/ml) or hygromycin B (260 µg/ml) at 37 °C and 5% CO2 with subculture as required. Trypsin (0.05%)-EDTA (0.02%) solution was used to detach cells. […]
The transport assays were performed as previously described with minor modifications, [24]. […] In order to identify the period of linear L-homoarginine uptake time dependence was assessed. […]
After cooling to 0 °C the cells were washed three times with ice-cold transport buffer and lysed with 0.2% SDS. The intracellular accumulation of radioactivity was determined by liquid scintillation counting (TriCarb 2800; PerkinElmer Life and Analytical Sciences, Inc.) after adding 4 ml of scintillation solution (Ultima Gold XR; PerkinElmer Life and Analytical Sciences, Inc., Rodgau-Jügesheim, Germany). […]
(§1) Statistical analysis was performed using GraphPad Prism 5 (version 5.01, 2007, GraphPad Software, San Diego, CA, USA). Net transport data were calculated as the difference of uptake from cells transfected with the respective CAT transporter and the corresponding empty control vector. […] KM-values for the uptake transport were calculated using Michaelis–Menten enzyme kinetics. The corresponding IC50 values for inhibition were calculated by fitting the data to a sigmoid dose–response regression curve. […]

For series [2], the target named is T2, human CAT2B (SLC7A2B) (Homo sapiens, UniProt P52569).
T2 construct: expressed in transfected cells
Briefly: Inhibition of CAT2B-mediated substrate uptake in HEK CAT2B cells. Type of series: cell-based. How it is done: (§2) Cell lines and basic cell culture conditions have previously been described, [24]. The original choice of human embryonic kidney cells (HEK293) cells for transfection with CAT1-, CAT2A- or CAT2B- was based on their reliable growth and well established propensity for transfection and cellular uptake experiments. In brief, uptake assays were performed using [^3H]-labeled substrate and human embryonic kidney (HEK293) cells stably overexpressing the empty vector only (HEK VCG418 and HEK VChygro, depending on selection conditions) or human CAT1 (HEK CAT1, gene: SLC7A1, NM_003045.4), CAT2A (HEK CAT2A, gene: SLC7A2A, NM_003046.5) or CAT2B (HEK CAT2B, SLC7A2B, NM_001008539.3). The cells were cultured in minimal essential medium containing 10% heat-inactivated fetal bovine serum, 100 U/l penicillin, 100 μg/ml streptomycin, and either G418 (800 µg/ml) or hygromycin B (260 µg/ml) at 37 °C and 5% CO2 with subculture as required. Trypsin (0.05%)-EDTA (0.02%) solution was used to detach cells. All cell culture media supplements were obtained from Invitrogen GmbH (Karlsruhe, Germany).
(§3) The transport assays were performed as previously described with minor modifications, [24]. Cells were seeded into poly-D-lysine-coated 12-well plates. Sodium butyrate (10 mmol/l) was added after 24 h of culture for 24 h to enhance CAT1, CAT2A or CAT2B protein expression. […] In order to identify the period of linear L-homoarginine uptake time dependence was assessed. Cells were incubated with the transport buffer containing 100 μmol/L L-homoarginine at 37 °C for 1, 2.5, 5, 10 and 30 min. For determination of kinetic parameters of CAT-mediated L-homoarginine transport increasing L-homoarginine concentrations and an incubation time of 2.5 min were used.
(§4) After cooling to 0 °C the cells were washed three times with ice-cold transport buffer and lysed with 0.2% SDS. The intracellular accumulation of radioactivity was determined by liquid scintillation counting (TriCarb 2800; PerkinElmer Life and Analytical Sciences, Inc.) after adding 4 ml of scintillation solution (Ultima Gold XR; PerkinElmer Life and Analytical Sciences, Inc., Rodgau-Jügesheim, Germany). A bicinchoninic acid assay was used to assess the protein concentrations. […]
as §1

Series [3] addresses T3, human CAT1 (SLC7A1) (Homo sapiens, UniProt P30825).
T3 construct: expressed in transfected cells
Nature of the series: Inhibition of CAT1-mediated substrate uptake in HEK CAT1 cells. In kind it is cell-based. Here is the method:
as §2, §3, §4, §1

Series [4] addresses T2, human CAT2B (SLC7A2B). Briefly: CAT2B-mediated uptake of [3H]-L-homoarginine in HEK293 cells overexpressing CAT2B. Type of series: cell-based. Here is the method:
as §2
(§5) The transport assays were performed as previously described with minor modifications, [24]. Cells were seeded into poly-D-lysine-coated 12-well plates. Sodium butyrate (10 mmol/l) was added after 24 h of culture for 24 h to enhance CAT1, CAT2A or CAT2B protein expression. […] In order to identify the period of linear L-homoarginine uptake time dependence was assessed. Cells were incubated with the transport buffer containing 100 μmol/L L-homoarginine at 37 °C for 1, 2.5, 5, 10 and 30 min. […]
as §1

The subject of another series is fibroblasts. More on the design: method as in PMID 7040384. To be noted: read-out: KM for uptake of L-homoarginine by cells; cited from earlier work.
Series [5] deals with T1, human CAT2A (SLC7A2A). Nature of the series: CAT2A-mediated uptake of [3H]-L-homoarginine in HEK293 cells overexpressing CAT2A. In kind it is cell-based. Here is the method:
as §2, §5, §1

Series [6] deals with T3, human CAT1 (SLC7A1). Nature of the series: CAT1-mediated uptake of [3H]-L-homoarginine in HEK293 cells overexpressing CAT1. Type of series: cell-based. How it is done:
as §2, §5, §1

The test system of a further series is rat hepatocytes. More on the design: method as in PMID 7068644. As to conditions: read-out: KM for uptake of L-homoarginine by cells; cited from earlier work.
On the set-up of series [7]: method as in PMID 27434056. As to conditions: healthy volunteers, augmented from 2.9 µmol/l; cited from earlier work.
Where [8] appears, read: substrate L-homoarginine 100 µmol/l, inhibitor 1-10000 µmol/l, read-out: IC50 for inhibition of CAT2B-mediated uptake of L-homoarginine.
Where [9] appears, read: net uptake, 2.5 min incubation, 37 °C.

T2 sequence (P52569 whole entry): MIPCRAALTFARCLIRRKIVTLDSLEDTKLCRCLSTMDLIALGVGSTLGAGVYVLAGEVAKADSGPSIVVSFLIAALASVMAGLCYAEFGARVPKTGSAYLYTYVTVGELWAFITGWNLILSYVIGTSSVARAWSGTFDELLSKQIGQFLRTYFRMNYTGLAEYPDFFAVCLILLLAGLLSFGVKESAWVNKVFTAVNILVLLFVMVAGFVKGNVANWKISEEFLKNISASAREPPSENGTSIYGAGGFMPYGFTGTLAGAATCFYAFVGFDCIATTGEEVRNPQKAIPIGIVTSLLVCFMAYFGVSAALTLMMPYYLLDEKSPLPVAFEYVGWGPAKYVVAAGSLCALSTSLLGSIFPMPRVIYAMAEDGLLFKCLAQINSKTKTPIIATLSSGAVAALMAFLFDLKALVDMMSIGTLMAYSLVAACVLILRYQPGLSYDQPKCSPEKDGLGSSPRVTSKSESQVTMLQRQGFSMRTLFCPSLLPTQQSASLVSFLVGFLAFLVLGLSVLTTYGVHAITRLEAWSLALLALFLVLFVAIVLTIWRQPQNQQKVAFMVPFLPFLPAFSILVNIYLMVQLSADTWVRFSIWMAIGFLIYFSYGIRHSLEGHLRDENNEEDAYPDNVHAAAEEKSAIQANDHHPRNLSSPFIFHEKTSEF
T1 sequence (P52569 1-697 isoform P52569-2): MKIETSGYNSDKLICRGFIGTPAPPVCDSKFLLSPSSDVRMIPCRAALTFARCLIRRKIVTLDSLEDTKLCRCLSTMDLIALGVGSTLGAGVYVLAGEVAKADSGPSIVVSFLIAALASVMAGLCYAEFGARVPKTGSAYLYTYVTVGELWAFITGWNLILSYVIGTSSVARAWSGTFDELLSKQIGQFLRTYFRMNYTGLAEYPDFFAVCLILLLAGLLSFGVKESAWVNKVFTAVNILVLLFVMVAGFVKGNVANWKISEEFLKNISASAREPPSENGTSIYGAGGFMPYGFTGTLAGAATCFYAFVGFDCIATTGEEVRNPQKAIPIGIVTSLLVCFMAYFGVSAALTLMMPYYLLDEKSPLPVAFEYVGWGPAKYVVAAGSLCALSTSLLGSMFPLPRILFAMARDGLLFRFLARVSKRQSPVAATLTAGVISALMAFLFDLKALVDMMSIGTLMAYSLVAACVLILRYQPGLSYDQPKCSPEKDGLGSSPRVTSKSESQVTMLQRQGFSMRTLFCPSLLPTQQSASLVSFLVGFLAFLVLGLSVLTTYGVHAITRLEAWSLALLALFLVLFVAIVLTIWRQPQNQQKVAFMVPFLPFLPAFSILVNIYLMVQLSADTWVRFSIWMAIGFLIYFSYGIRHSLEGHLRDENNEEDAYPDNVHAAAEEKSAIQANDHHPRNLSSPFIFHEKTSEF
T3 sequence (P30825 whole entry): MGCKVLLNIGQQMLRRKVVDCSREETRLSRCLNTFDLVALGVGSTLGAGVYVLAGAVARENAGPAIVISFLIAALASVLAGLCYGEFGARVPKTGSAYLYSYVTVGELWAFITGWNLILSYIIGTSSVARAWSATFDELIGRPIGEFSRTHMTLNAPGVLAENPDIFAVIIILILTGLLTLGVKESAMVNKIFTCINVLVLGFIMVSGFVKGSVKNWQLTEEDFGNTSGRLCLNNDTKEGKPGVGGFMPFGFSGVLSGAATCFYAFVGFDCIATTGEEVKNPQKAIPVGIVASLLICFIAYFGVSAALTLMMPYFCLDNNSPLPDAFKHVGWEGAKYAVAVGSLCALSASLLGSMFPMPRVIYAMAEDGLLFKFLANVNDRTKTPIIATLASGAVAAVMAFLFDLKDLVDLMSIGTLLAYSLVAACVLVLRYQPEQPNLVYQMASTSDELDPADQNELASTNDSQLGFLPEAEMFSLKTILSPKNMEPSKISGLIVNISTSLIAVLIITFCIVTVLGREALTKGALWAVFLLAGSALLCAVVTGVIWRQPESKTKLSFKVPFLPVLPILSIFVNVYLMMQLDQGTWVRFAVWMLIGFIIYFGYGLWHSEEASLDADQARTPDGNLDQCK

Consider `CN(C)C(N)=NCCC[C@H](N)C(=O)O` [ADMA, asymmetric dimethylarginine, reference compound], for which the “inhibition of CAT2A-mediated transport of L-homoarginine” value on human CAT2A (SLC7A2A) [1] is given as “could only be inhibited by very high (10000 µmol/l) concentrations”. Moreover, the IC50 was 608 µM at human CAT2B (SLC7A2B) [2] (setting [8]) and 379 µM on human CAT1 (SLC7A1) [3] (substrate L-homoarginine 100 µmol/l, inhibitor 1-10000 µmol/l, read-out: IC50 for inhibition of CAT1-mediated uptake of L-homoarginine).
Turning to `N=C(N)NCCC[C@H](N)C(=O)O` [L-arginine, reference compound], the “inhibition of CAT2A-mediated transport of L-homoarginine” value on human CAT2A (SLC7A2A) [1] was “could only be inhibited by very high (10000 µmol/l) concentrations”. Besides, the IC50 on human CAT2B (SLC7A2B) [2] (setting [8]) is 1440 µM. Besides, the “inhibition of CAT1-mediated net uptake of L-homoarginine at physiological concentrations” value at human CAT1 (SLC7A1) [3] (substrate L-homoarginine 2 µmol/l, inhibitor L-arginine 100 µmol/l, p < 0.01) was “significantly inhibited”.
As for `NC(N)=NCCCC[C@H](N)C(=O)O` [L-homoarginine], the “cellular uptake of L-homoarginine vs control cells” value on human CAT2B (SLC7A2B) [4] (L-homoarginine 100 µmol/l, HEK CAT2B vs control cells, p < 0.001) was 2.2 fold; at human CAT2A (SLC7A2A) [5] (L-homoarginine 100 µmol/l, HEK CAT2A vs control cells, p < 0.001), 1.6 fold; at human CAT1 (SLC7A1) [6] (L-homoarginine 100 µmol/l, HEK CAT1 vs HEK VCG418, p < 0.001), 7 fold. Besides, on human CAT2B (SLC7A2B) [4] (setting [9]), the “apparent Vmax of CAT2B-mediated uptake” value was 11 ± 0.2 nmol × mg protein^−1 × min^−1. In addition, the Km at human CAT2B (SLC7A2B) [4] (net uptake, 2.5 min incubation, 37 °C, read-out: apparent KM of CAT2B-mediated uptake) is 523 ± 35 µM; in the series with fibroblasts, 40 µM; on human CAT1 (SLC7A1) [6] (net uptake, 2.5 min incubation, 37 °C, read-out: apparent KM of CAT1-mediated uptake), 175 ± 7 µM; with rat hepatocytes, 300 µM. Further, the “saturation of CAT2A-mediated uptake” value at human CAT2A (SLC7A2A) [5] (increasing L-homoarginine concentrations) is given as “could not be reached”. Besides, the “Vmax of CAT2A-mediated uptake” value at human CAT2A (SLC7A2A) [5] (net uptake, 2.5 min, 37 °C, only estimated, limited by maximally attainable L-homoarginine concentration) is > 20 nmol × mg protein^−1 × min^−1. Moreover, the IC50 at human CAT2A (SLC7A2A) [1] (substrate ADMA 100 µmol/l, inhibitor 1–100000 µmol/l) was found to be 9240 µM; at human CAT2B (SLC7A2B) [2] (read-out: IC50 for inhibition of CAT2B-mediated uptake of L-arginine, substrate L-arginine 1000 µmol/l, inhibitor 1–100000 µmol/l) it was 1220 µM; on human CAT2B (SLC7A2B) [2] (substrate ADMA 100 µmol/l, inhibitor 1–100000 µmol/l, read-out: IC50 for inhibition of CAT2B-mediated uptake of ADMA), 1860 µM; at human CAT1 (SLC7A1) [3] (read-out: IC50 for inhibition of CAT1-mediated uptake of L-arginine, substrate L-arginine 1000 µmol/l, inhibitor 1–100000 µmol/l), 1320 µM; on human CAT1 (SLC7A1) [3] (substrate ADMA 100 µmol/l, inhibitor 1–100000 µmol/l, read-out: IC50 for inhibition of CAT1-mediated uptake of ADMA) it was 642 µM. For the same compound, on human CAT1 (SLC7A1) [6] (setting [9]), the “apparent Vmax of CAT1-mediated uptake” value was 12 ± 0.1 nmol × mg protein^−1 × min^−1. In [7], the “mean plasma concentration after supplementation” value is 17.3 µM.
